Data: patent US8168646B2, “3,4-dihydroquinazoline derivatives” (Dongwoo Syntech Co., Ltd., priority 2007, dated 2012)

Tests used:
[1] = tested on: human lung carcinoma (A-549); test: Growth inhibition, SRB assay, A-549; type: cell-based; conditions: A549, 72 hours, three independent experiments, read-out: Growth inhibition of cancer cell: GI50, A-549
Method: (§1) T-type calcium channel blocking effects of the compounds of the present invention were tested according to an electrophysiological whole-cell patch-clamp method, which uses mammalian HEK293 cell line selectively expressing α1G among T-type calcium channel encoding genes, wherein the α1G is mainly expressed at nerve cells (derived from […]), as described in Korean Patent No. 0610731 and Monteil, A., et al., J. Biol. Chem. 2000, 275, 6090-6100. Also, cytotoxicities of the compounds according to the present invention were tested according to a 3-(4,5-dimethylthiazol-2-yl)-2,5-diphenyltetrazolium bromide (MTT) assay. Further, growth inhibition effects against cancer cell lines of the compounds according to the present invention were tested according to a sulforhodamine B (SRB) assay, as disclosed in Skehan, P. et al., J. Natl Cancer Inst. 1990, 82, 1107-1112.
(§2) Experiment 3: Analysis for Growth Inhibition Against Cancer Cell Lines Using SRB Assay
(§3) The compounds according to the present invention were evaluated for their growth inhibition against five cancer cell lines, including human lung carcinoma (A-549), human prostate cancer (DU 145), human colon cancer (HT-29), human malignant melanoma (SK-MEL-2) and human ovarian cancer (SK-OV-3) using sulforhodamine B (SRB) assay. All cell lines were grown in RPMI 1640 (Gibco BRL) supplemented with 10% (v/v) heat-inactivated fetal bovine serum (FBS) and maintained at 37° C. in a humidified atmosphere with 5% CO2. The cells were seeded into 96-well plate. Various concentrations of compounds were added to each well in triplicate and then incubated at 37° C. with 5% CO2 for 72 hours such that cells are in the exponential phase of growth at the time of drug addition. After incubation, 100 μL of formalin solution was gently added to the wells. Microplates were left for 30 min at room temperature and washed five times with tap water. One hundred microliters of 0.4% SRB solution was added to each well and left at room temperature for 30 min. SRB was removed and the plates were washed five times with 1% acetic acid before air-drying. Bound SRB was solubilized with 100 μL of 10 mM unbuffered Tris-base solution (Sigma) and plates were left on a plate shaker for at least 10 min. The optical density was measured using a microplate reader (Versamax, Molecular Devices) with a 520 nm wavelength and the growth inhibition concentration was expressed as GI50.

[2] = tested on: human prostate cancer (DU 145); test: Growth inhibition, SRB assay, DU 145; type: cell-based; conditions: 72 hours, three independent experiments, read-out: Growth inhibition of cancer cell: GI50, DU 145
Method: as §1, §2, §3

[3] = tested on: human colon cancer (HT-29); test: Growth inhibition, SRB assay, HT-29; type: cell-based; conditions: for GI50: Homo sapiens, HT-29, SRB assay, 72 hours, three independent experiments, read-out: Growth inhibition of cancer cell: GI50, HT-29
Method: as §1, §2, §3

[4] = tested on: human malignant melanoma (SK-MEL-2); test: Growth inhibition, SRB assay, SK-MEL-2; type: cell-based; conditions: 72 hours, three independent experiments, read-out: Growth inhibition of cancer cell: GI50, SK-MEL-2
Method: as §1, §2, §3

[5] = tested on: human ovarian cancer (SK-OV-3); test: Growth inhibition, SRB assay, SK-OV-3; type: cell-based; conditions: 72 hours, three independent experiments, read-out: Growth inhibition of cancer cell: GI50, SK-OV-3
Method: as §1, §2, §3

[6] = target: T1, T-type calcium channel (α1G) (Homo sapiens, UniProt O43497); test: T-type calcium channel blocking, electrophysiological whole-cell patch-clamp in HEK293 cells expressing α1G; type: cell-based; conditions: dose-response curve, three independent experiments, read-out: Channel blocking effect (IC50) T-type (α1G)
T1 construct: expressed in transfected cells
Method: as §1
Experiment 1: Methods for Culturing HEK293 cells and measuring T-type Calcium Channel Activity Using an Electrophysiological Method
HEK293 cells were cultured in Dulbecco's modified Eagle's medium (DMEM) supplemented with 10% fetal bovine serum (FBS) and 1% penicillin/streptomycin (v/v) in 36.5° C. humidified incubator (95% air-5% CO2). […] The cells used for T-type calcium channel activity assay were cultured on a cover slip coated with poly-L-lysine (0.5 mg/mL) whenever sub-cultured, and their calcium channel activity was recorded 2 to 7 days after the cultivation. Current of the T-type calcium channel at a single cell level was measured according to an electrophysiological whole-cell patch-clamp method using EPC-9 amplifier (HEKA, Germany). […] Inward current caused by the T-type calcium channel activation which occurred when the cells were converted into a whole-cell recording mode by stabbing a microglass electrode having 3-4 MΩ resistance which was filled with the cell interior solution into a single cell and de-polarized at −30 mV (50 ms duration period) every 10 s with fixing membrane potential to −100 mV was measured according to a T-type calcium channel protocol activated at low current.

[7] = tested on: five cancer cell lines; test: Growth inhibition, SRB assay, five cancer cell lines overall; type: cell-based, human
Method: as §2
as §3, with “One hundred microliters of 0.4% SRB solution was added to each well and left at room temperature for 30 min. SRB was removed and the plates were washed five times with 1% acetic acid before air-drying. Bound SRB was solubilized with 100 μL of 10 mM unbuffered Tris-base solution (Sigma) and plates were left on a plate shaker for at least 10 min.” left out
The biological activities of doxorubicin and KYS05042 disclosed in Korean Patent No. 0610731 were evaluated as references, and the results are indicated in Table 2.

T1 sequence (O43497 whole entry): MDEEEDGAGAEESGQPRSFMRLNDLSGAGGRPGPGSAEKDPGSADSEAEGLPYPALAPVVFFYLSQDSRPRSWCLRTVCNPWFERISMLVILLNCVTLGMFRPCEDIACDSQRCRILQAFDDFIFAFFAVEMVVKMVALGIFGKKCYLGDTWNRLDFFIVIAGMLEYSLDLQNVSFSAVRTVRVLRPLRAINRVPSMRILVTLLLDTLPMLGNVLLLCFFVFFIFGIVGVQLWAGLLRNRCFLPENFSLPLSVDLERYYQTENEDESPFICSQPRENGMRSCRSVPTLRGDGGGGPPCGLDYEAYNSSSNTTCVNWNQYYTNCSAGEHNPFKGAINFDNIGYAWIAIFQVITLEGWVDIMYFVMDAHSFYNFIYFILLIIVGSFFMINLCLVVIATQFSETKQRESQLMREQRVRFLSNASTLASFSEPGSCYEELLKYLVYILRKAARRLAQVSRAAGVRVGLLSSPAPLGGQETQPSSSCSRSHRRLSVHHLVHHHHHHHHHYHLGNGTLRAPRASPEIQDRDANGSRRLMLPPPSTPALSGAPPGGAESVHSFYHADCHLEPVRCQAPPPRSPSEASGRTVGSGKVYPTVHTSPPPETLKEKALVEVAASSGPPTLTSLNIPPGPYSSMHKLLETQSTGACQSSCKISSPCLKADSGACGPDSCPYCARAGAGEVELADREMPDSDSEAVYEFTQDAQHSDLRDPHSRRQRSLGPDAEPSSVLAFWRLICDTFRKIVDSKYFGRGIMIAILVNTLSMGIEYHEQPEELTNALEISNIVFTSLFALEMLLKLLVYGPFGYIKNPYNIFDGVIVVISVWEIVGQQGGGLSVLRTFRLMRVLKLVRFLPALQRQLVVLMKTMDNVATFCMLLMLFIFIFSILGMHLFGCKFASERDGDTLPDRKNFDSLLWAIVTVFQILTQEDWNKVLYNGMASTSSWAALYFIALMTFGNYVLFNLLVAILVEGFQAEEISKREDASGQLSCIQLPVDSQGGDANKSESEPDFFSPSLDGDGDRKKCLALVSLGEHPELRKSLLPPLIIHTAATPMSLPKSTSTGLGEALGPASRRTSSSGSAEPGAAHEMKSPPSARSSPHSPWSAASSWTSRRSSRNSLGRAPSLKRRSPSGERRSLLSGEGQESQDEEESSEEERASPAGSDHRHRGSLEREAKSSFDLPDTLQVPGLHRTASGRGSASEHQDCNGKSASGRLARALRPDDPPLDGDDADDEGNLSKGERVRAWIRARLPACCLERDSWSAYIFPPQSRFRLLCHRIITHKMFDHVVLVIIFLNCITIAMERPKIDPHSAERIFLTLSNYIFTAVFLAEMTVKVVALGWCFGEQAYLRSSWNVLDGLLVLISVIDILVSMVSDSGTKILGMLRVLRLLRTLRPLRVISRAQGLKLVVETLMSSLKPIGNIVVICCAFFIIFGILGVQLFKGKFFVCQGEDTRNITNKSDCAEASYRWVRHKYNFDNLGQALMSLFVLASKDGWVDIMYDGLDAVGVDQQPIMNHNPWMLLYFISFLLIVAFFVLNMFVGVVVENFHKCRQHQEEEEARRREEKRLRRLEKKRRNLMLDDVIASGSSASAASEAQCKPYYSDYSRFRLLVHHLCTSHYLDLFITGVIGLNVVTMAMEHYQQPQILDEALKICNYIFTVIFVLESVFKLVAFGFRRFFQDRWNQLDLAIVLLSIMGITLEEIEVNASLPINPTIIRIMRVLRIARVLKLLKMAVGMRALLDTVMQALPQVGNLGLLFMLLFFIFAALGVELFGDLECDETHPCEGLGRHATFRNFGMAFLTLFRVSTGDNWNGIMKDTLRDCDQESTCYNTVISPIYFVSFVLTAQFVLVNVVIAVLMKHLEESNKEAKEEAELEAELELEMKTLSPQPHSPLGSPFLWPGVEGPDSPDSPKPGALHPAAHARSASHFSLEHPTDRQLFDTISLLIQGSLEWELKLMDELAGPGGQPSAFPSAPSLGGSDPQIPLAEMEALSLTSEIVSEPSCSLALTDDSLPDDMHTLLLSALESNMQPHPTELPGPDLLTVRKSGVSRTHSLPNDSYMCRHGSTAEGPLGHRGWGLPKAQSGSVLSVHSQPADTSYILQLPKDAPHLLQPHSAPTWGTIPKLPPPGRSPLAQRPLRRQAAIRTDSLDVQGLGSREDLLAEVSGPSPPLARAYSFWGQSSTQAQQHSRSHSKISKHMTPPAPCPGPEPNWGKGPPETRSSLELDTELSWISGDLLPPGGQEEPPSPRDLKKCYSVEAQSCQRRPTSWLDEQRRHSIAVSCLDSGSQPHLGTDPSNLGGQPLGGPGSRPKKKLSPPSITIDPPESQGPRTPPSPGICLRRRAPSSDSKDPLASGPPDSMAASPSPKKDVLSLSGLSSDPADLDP

GI50 [1]	GI50 [2]	GI50 [3]	GI50 [4]	GI50 [5]	IC50 [6]	SMILES	Times stronger activity against human colon cancer cell line compared to KYS05042 ([3]; human colon cancer cell line, compared to KYS05042)	Times stronger activity against human colon cancer cell line compared to doxorubicin ([3]; human colon cancer cell line, compared to doxorubicin)	Times stronger growth inhibition compared to KYS05042 ([7]; compared to KYS05042)	Growth inhibition compared to doxorubicin ([7]; compared to doxorubicin)
0.16 ± 0.01 µM	0.06 ± 0.01 µM	0.21 ± 0.04 µM	0.11 ± 0.01 µM	0.12 ± 0.02 µM		COc1cccc2c1C(=O)c1c(O)c3c(c(O)c1C2=O)C[C@@](O)(C(=O)CO)C[C@@H]3O[C@H]1C[C@H](N)[C@H](O)[C@H](C)O1 [Doxorubicin, doxorubicin, reference compound]				
1.77 ± 0.16 µM	1.78 ± 0.17 µM	0.52 ± 0.24 µM	1.91 ± 0.11 µM	1.95 ± 0.04 µM	0.23 ± 0.03 µM	COC(=O)CC1c2ccccc2N=C(N(C)CCCCCN(C)C)N1c1ccc(-c2ccccc2)cc1 (stereo not drawn) [KYS05089, 2-[N-(5-N′,N′-Dimethylaminopentyl)-N-Methylamino]-3-(4-Biphenylyl)-4-Methoxycarbonylmethyl-3,4-Dihydroquinazoline]				
0.87 ± 0.18 µM	2.49 ± 0.53 µM	0.61 ± 0.12 µM	0.69 ± 0.15 µM	2.76 ± 0.76 µM	0.26 ± 0.01 µM	CN(CCCCCN1CCCC1)C1=Nc2ccccc2C(CC(=O)NCc2ccccc2)N1c1ccc(-c2ccccc2)cc1 (stereo not drawn) [KYS05080]				
0.17 ± 0.02 µM	0.19 ± 0.02 µM	0.04 ± 0.01 µM	0.48 ± 0.13 µM	0.66 ± 0.13 µM	0.041 ± 0.001 µM	CN(C)CCCCCN(C)C1=Nc2ccccc2C(CC(=O)NCc2ccccc2)N1c1ccc(-c2ccccc2)cc1 (stereo not drawn) [KYS05090, 4-(N-Benzylacetamino)-3-(4-Biphenylyl)-2-[N-(5-N′,N′-Dimethylaminopentyl)-N-Methylamino]-3,4-Dihydroquinazoline]	about 40 times	about 5 times	about 10 times	nearly equipotent growth inhibition
